From PubChem BioAssay AID1963852 (Molecular Pharmacology Branch, DTP, NCI, 2024)

Tested on: 282377-053-R-J1-PDC complex spheroid viability
Test: Anticancer human tumor 282377-053-R-J1-PDC patient-derived colon adenocarcinoma cell line growth inhibition [POLQ]
Settings: for IC50: curve of first compound; for viability, T/C: stronger effect = lower value; active = viability on the fitted dose curve at most 10% of control; inactive = the rest
In short: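 Complex spheroid viability model combining PDC tumour cells with endothelial (HUVEC) and MSC stromal cells. Novobiocin, ART-558 or RP6685 were tested singly and in combination with standard and investigational anticancer drugs. Each was titrated in half-log steps from near clinical Cmax, or from 10 microM where Cmax was unknown.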

[1] = second compound 0.0316 µM, first compound 0.0316 µM
[2] = second compound 0.0316 µM, first compound 0.1 µM
[3] = second compound 0.1 µM, first compound 0.0316 µM
[4] = second compound 0.1 µM, first compound 0.1 µM
[5] = second compound 0.316 µM, first compound 0.0316 µM
[6] = second compound 0.316 µM, first compound 0.1 µM
[7] = second compound 1 µM, first compound 0.0316 µM
[8] = second compound 1 µM, first compound 0.1 µM
[9] = second compound 3.16 µM, first compound 0.0316 µM
[10] = second compound 3.16 µM, first compound 0.1 µM
[11] = second compound 10 µM, first compound 0.0316 µM
[12] = second compound 10 µM, first compound 0.1 µM
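Note: spheroids exposed to compounds for seven days.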
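Throughout, for viability, T/C: 100% = DMSO vehicle control viability.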

Nc1ccn(C2OC(CO)C(O)C2(F)F)c(=O)n1 (centres undefined) + Nc1ccc(C#CCN(C(=O)Cc2ncc(C(F)(F)F)cc2C(F)(F)F)c2ccc(F)cc2)nn1
inactive: viability, T/C [1] 118% | viability, T/C [2] 128% | viability, T/C (second compound 0.0316 µM, first compound 0.316 µM) 122% | viability, T/C (second compound 0.0316 µM, first compound 1 µM) 83.3% | viability, T/C (second compound 0.0316 µM, first compound 3.16 µM) 84.4% | viability, T/C (second compound 0.0316 µM, first compound 10 µM) 68.4% | viability, T/C [3] 101% | viability, T/C [4] 112% | viability, T/C (second compound 0.1 µM, first compound 0.316 µM) 109% | viability, T/C (second compound 0.1 µM, first compound 1 µM) 101% | viability, T/C (second compound 0.1 µM, first compound 3.16 µM) 80.4% | viability, T/C (second compound 0.1 µM, first compound 10 µM) 65.4% | viability, T/C [5] 115% | viability, T/C [6] 98.8% | viability, T/C (second compound 0.316 µM, first compound 0.316 µM) 107% | viability, T/C (second compound 0.316 µM, first compound 1 µM) 95.7% | viability, T/C (second compound 0.316 µM, first compound 3.16 µM) 83% | viability, T/C (second compound 0.316 µM, first compound 10 µM) 56.2% | viability, T/C [7] 104% | viability, T/C [8] 93.8% | viability, T/C (second compound 1 µM, first compound 0.316 µM) 108% | viability, T/C (second compound 1 µM, first compound 1 µM) 92.6% | viability, T/C (second compound 1 µM, first compound 3.16 µM) 81% | viability, T/C (second compound 1 µM, first compound 10 µM) 67.7% | viability, T/C [9] 115% | viability, T/C [10] 116% | viability, T/C (second compound 3.16 µM, first compound 0.316 µM) 117% | viability, T/C (second compound 3.16 µM, first compound 1 µM) 107% | viability, T/C (second compound 3.16 µM, first compound 3.16 µM) 108% | viability, T/C (second compound 3.16 µM, first compound 10 µM) 78.8% | viability, T/C [11] 124% | viability, T/C [12] 120% | viability, T/C (second compound 10 µM, first compound 0.316 µM) 127% | viability, T/C (second compound 10 µM, first compound 1 µM) 124% | viability, T/C (second compound 10 µM, first compound 3.16 µM) 114% | viability, T/C (second compound 10 µM, first compound 10 µM) 90.5%
> 10 µM: IC50 (second compound 0.0316 µM) | IC50 (second compound 0.1 µM) | IC50 (second compound 0.316 µM) | IC50 (second compound 1 µM) | IC50 (second compound 3.16 µM) | IC50 (second compound 10 µM)

Cn1ncnc1[C@H]1c2n[nH]c(=O)c3cc(F)cc(c23)N[C@@H]1c1ccc(F)cc1 + Nc1ccc(C#CCN(C(=O)Cc2ncc(C(F)(F)F)cc2C(F)(F)F)c2ccc(F)cc2)nn1
> 0.1 µM: IC50 (second compound 0.0316 µM) | IC50 (second compound 0.1 µM) | IC50 (second compound 0.316 µM) | IC50 (second compound 1 µM) | IC50 (second compound 3.16 µM) | IC50 (second compound 10 µM)
inactive: viability, T/C (second compound 0.0316 µM, first compound 0.000316 µM) 98.9% | viability, T/C (second compound 0.0316 µM, first compound 0.001 µM) 94.9% | viability, T/C (second compound 0.0316 µM, first compound 0.00316 µM) 91.9% | viability, T/C (second compound 0.0316 µM, first compound 0.01 µM) 101% | viability, T/C [1] 108% | viability, T/C [2] 94.3% | viability, T/C (second compound 0.1 µM, first compound 0.000316 µM) 105% | viability, T/C (second compound 0.1 µM, first compound 0.001 µM) 108% | viability, T/C (second compound 0.1 µM, first compound 0.00316 µM) 84.1% | viability, T/C (second compound 0.1 µM, first compound 0.01 µM) 97.3% | viability, T/C [3] 100% | viability, T/C [4] 81.9% | viability, T/C (second compound 0.316 µM, first compound 0.000316 µM) 99% | viability, T/C (second compound 0.316 µM, first compound 0.001 µM) 93.7% | viability, T/C (second compound 0.316 µM, first compound 0.00316 µM) 108% | viability, T/C (second compound 0.316 µM, first compound 0.01 µM) 93.8% | viability, T/C [5] 97.7% | viability, T/C [6] 95.2% | viability, T/C (second compound 1 µM, first compound 0.000316 µM) 102% | viability, T/C (second compound 1 µM, first compound 0.001 µM) 96.8% | viability, T/C (second compound 1 µM, first compound 0.00316 µM) 94.5% | viability, T/C (second compound 1 µM, first compound 0.01 µM) 86.9% | viability, T/C [7] 103% | viability, T/C [8] 104% | viability, T/C (second compound 3.16 µM, first compound 0.000316 µM) 105% | viability, T/C (second compound 3.16 µM, first compound 0.001 µM) 100% | viability, T/C (second compound 3.16 µM, first compound 0.00316 µM) 100% | viability, T/C (second compound 3.16 µM, first compound 0.01 µM) 110% | viability, T/C [9] 113% | viability, T/C [10] 93.9% | viability, T/C (second compound 10 µM, first compound 0.000316 µM) 122% | viability, T/C (second compound 10 µM, first compound 0.001 µM) 119% | viability, T/C (second compound 10 µM, first compound 0.00316 µM) 121% | viability, T/C (second compound 10 µM, first compound 0.01 µM) 119% | viability, T/C [11] 111% | viability, T/C [12] 127%
